These results are taken from patent US20100150863A1, “HYDROXY METHYL PHENYL PYRAZOLYL UREA COMPOUND USEFUL IN TREATMENT OF CANCER” (BAYER PHARMACEUTICALS CORPORATION, priority 2006, published 2010).

The subject of one experiment is early phase CML. The conditions noted are these: patients with early phase CML; cited from earlier work.
For another experiment, the system named is Bcr-Abl kinase. The conditions noted are these: greater potency than Imatinib; cited from earlier work.
The test system of experiment [1] is Imatinib-resistant Bcr-Abl mutations. The conditions noted are these: cited from earlier work.
A further experiment concerns Bcr-Abl E255K mutant. The conditions noted are these: cited from earlier work.
For experiment [2], the system named is BaF3 parental cell line that does not express Bcr-Abl. Nature of the experiment: Cell proliferation assay, BaF3 parental cell line. Type of experiment: cell-based. The conditions noted are these: Mus musculus.
The target in another experiment is T1, human recombinant c-Met (Homo sapiens, UniProt P08581).
T1 construct: C-terminal HIS-tagged intracellular kinase domain (956 to 1390 amino acids) human recombinant c-Met; His (C)
Nature of the experiment: c-Met biochemical assay (ELISA). The procedure:
An ELISA format was used for the c-Met biochemical assay. This assay uses the C-terminal HIS-tagged intracellular kinase domain (956 to 1390 amino acids) human recombinant c-Met in 96-well plates. 96-Well plates (Costar #9018) coated with poly(GluTyr) (Sigma # P0275) were used in this assay. The poly(GluTyr) substrate coated on the plate was phosphorylated in a 100 μL reaction volume with 2 nM c-Met protein in an assay buffer (50 mM HEPES pH7.0, 5 mM MnCl2, 0.1% BSA, 0.5 mM sodium orthovanadate, 0.1% β-mercaptoethanol), with 0.2 μM ATP (Sigma #A7699). […] After 25 minutes of incubation, the assay reaction was stopped with 25 μL of 100 mM EDTA. The plates were then washed, and wells were treated with 100 μL of 80 ng/mL anti-4G10-HRP antibody (Upstate #16-105) for 1 h. Plates were washed one final time, and were developed with 100 μL 3,3′,5,5′-TMB (Sigma #T8665), and quenched with 100 μL 1M HCl. Plates were read on a Victor 2 plate reader (Perkin Elmer) and IC50 analysis and calculation were performed using in-house software.
(In general: An ELISA detects its analyte on a solid surface through an enzyme-linked reagent.)

For a further experiment, the system named is BaF3-Abl(M351T). Nature of the experiment: Cell proliferation assay, BaF3-Abl(M351T). The experiment is classed as cell-based. Particulars: Imatinib-resistant mutation. The text has this:
[Worded in the source for another cell line; this cell line is reported under the same test.] (§1) The adherent tumor cell proliferation assay used to test the compounds of the present invention involves a readout called Cell Titre-Glo developed by Promega (Cunningham, B A “A Growing Issue: Cell Proliferation Assays. Modern kits ease quantification of cell growth” The Scientist 2001, 15(13), 26; and Crouch, S P et al., “The use of ATP bioluminescence as a measure of cell proliferation and cytotoxicity” Journal of Immunological Methods 1993, 160, 81-88).
(§2) H460 cells (lung carcinoma, purchased from ATCC) were plated in 96-well plates at 3000 cells/well in complete media with 10% Fetal Calf Serum and incubated 24 hours at 37° C. Twenty-four hours after plating, test compounds were added over a final concentration range of 10 nM to 20 μM in serial dilutions at a final DMSO concentration of 0.2%. Cells were incubated for 72 hours at 37° C. in complete growth media after addition of the test compound. On day 4, using a Promega Cell Titer Glo Luminescent® assay kit, the cells were lysed and 100 microliters of substrate/buffer mixture was added to each well, mixed and incubated at room temperature for 8 minutes. The samples were read on a luminometer to measure the amount of ATP present in the cell lysates from each well, which corresponds to the number of viable cells in that well. Values read at 24-hour incubation were subtracted as Day 0. […]

The subject of a further experiment is BaF3-Abl(wt). Nature of the experiment: Cell proliferation assay, BaF3-Abl(wt). The experiment is classed as cell-based.
Source text: [Worded in the source for another cell line; this cell line is reported under the same test.] as §1, §2

The subject of another experiment is BaF3-Abl(T315I). Nature of the experiment: Cell proliferation assay, BaF3-Abl(T315I). Type of experiment: cell-based. The conditions noted are these: Imatinib-resistant mutation.
Source text: [Worded in the source for another cell line; this cell line is reported under the same test.] as §1, §2

A further experiment deals with BaF3-Abl(E255K). Nature of the experiment: Cell proliferation assay, BaF3-Abl(E255K). The experiment is classed as cell-based. The conditions noted are these: Imatinib-resistant mutation.
Source text: [Worded in the source for another cell line; this cell line is reported under the same test.] as §1, §2

The test system of another experiment is K562. Description: Cell proliferation assay, K562. Type of experiment: cell-based. The conditions noted are these: K562, human cell line expressing wild type Bcr-Abl; 72 hours, Cell Titer Glo.
Source text: [Worded in the source for another cell line; this cell line is reported under the same test.] as §1, §2

The target in experiment [3] is T2, mutant Bcr-Abl-T315I kinase (Homo sapiens, UniProt P00519, T315I).
T2 construct: fused on or other part: P11274 (Breakpoint cluster region protein)
T2 sequence (P00519 242-493 T315I limits assumed): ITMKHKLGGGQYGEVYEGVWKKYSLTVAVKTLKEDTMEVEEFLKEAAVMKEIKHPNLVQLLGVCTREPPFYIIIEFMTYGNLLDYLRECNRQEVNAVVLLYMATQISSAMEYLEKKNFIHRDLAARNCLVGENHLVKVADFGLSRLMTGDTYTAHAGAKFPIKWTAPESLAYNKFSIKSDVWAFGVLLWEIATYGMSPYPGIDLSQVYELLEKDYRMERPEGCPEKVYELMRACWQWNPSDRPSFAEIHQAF
Nature of the experiment: Bcr-Abl mutant T315I biochemical assay. Here is the method:
(§3) Bcr-Abl-wt or mutant Bcr-Abl-T315I kinase (0.17 nM) was incubated with Myelin Basic Protein (MBP, 2 μM) in assay buffer consisting of 50 mM Tris pH 7.5, 10 mM MgCl2, 1 mM EGTA, 2 mM DTT, 50 μM ATP and 0.4 μCi of ^33P-ATP. Test compounds were added at varying concentrations (final DMSO conc=1%) prior to the addition of ATP. The reaction mixture was incubated for 1 hour at 32° C. The reaction was then stopped by addition of phosphoric acid (final conc=1%) and samples were transferred to filtermats and read in a betaplate reader. Inhibition of MBP phosphorylation by Bcr-Abl-wt or Bcr-Abl-T315I was analyzed by using a 4 parameter fit and in-house software.

Another experiment has as its system BaF3-Abl(Y253F). Description: Cell proliferation assay, BaF3-Abl(Y253F). The experiment is classed as cell-based. Particulars: Imatinib-resistant mutation.
Source text: [Worded in the source for another cell line; this cell line is reported under the same test.] as §1, §2

For another experiment, the target named is T3, Bcr-Abl-wt kinase (Homo sapiens, UniProt P00519).
T3 construct: fused on or other part: P11274 (Breakpoint cluster region protein)
T3 sequence (P00519 229-512 limits assumed): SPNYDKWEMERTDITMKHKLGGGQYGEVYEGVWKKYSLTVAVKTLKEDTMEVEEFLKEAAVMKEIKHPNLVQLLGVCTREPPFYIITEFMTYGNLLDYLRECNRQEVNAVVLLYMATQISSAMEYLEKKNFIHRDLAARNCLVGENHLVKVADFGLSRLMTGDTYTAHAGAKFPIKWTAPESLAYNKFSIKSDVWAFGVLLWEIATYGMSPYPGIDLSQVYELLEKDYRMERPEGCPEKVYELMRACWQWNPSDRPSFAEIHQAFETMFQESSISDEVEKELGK
Description: Bcr-Abl wild type biochemical assay. The procedure: as §3

T1 sequence (P08581 956-1390): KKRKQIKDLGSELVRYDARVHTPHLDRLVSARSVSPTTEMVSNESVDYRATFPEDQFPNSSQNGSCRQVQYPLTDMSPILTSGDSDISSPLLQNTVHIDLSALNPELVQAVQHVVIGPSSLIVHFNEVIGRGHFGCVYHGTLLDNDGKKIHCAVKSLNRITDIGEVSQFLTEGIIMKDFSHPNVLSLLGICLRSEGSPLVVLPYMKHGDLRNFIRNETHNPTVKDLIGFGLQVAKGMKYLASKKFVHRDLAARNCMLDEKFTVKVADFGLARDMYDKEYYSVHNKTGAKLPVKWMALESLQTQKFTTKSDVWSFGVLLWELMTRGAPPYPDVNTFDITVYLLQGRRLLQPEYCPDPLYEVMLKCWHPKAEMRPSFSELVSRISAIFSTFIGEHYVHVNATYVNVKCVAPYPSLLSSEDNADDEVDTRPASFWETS

For the compound `Cc1ccc(NC(=O)c2ccc(CN3CCN(C)CC3)cc2)cc1Nc1nccc(-c2cccnc2)n1` [Imatinib], the “degree of response at haematological and cytogenetic levels” value in the experiment with early phase CML is listed as “greater than 90%”.
Consider `Cc1cn(-c2cc(NC(=O)c3ccc(C)c(Nc4nccc(-c5cccnc5)n4)c3)cc(C(F)(F)F)c2)cn1` [AMN-107, nilotinib], for which the “potency of Bcr-Abl kinase inhibition relative to Imatinib” value with Bcr-Abl kinase is on record as 20 fold. Also, in experiment [1], the “inhibition of Imatinib-resistant Bcr-Abl mutations” value is on record as “inhibit most Imatinib-resistant Bcr-Abl mutations, except for T315I”. In addition, the “inhibition of E255K mutant in a biochemical assay” value with Bcr-Abl E255K mutant is on record as “somewhat weak inhibition”.
Broadly, the IC50 is the concentration that inhibits the measured activity by half. As for `CNC(=O)c1cc(Oc2ccc(NC(=O)Nc3cc(C(C)(C)C)nn3-c3cccc(CO)c3)c(Cl)c2)ccn1` [ANDREA-1, 4-{4-[({3-tert-Butyl-1-[3-(hydroxymethyl)phenyl]-1H-pyrazol-5-yl}carbamoyl)amino]-3-chlorophenoxy}-N-methylpyridine-2-carboxamide], the IC50 is greater than 3000 nM in experiment [2]; less than 10000 nM at human recombinant c-Met; 8.38 nM in the experiment with BaF3-Abl(M351T); 2.81 nM in the experiment on BaF3-Abl(wt); 71 nM in the experiment on BaF3-Abl(T315I); 53.9 nM in the experiment on BaF3-Abl(E255K). Moreover, the IC50 with K562 is 0.448 nM; in experiment [3], less than 10000 nM; in the experiment with BaF3-Abl(Y253F), 4.96 nM; against Bcr-Abl-wt kinase, less than 10000 nM.
